# Laboratory results from US10493077B2, “Fused imidazo-piperidine JAK inhibitor compound” (THERAVANCE BIOPHARMA R&D IP, LLC, priority 2017, dated 2019).
# Tests used:
# JAK1 = target: T1, JAK1 (Homo sapiens, UniProt P23458); experiment: LanthaScreen JAK biochemical assay, JAK1; details: read-out: JAK 1 pKi (converted)
# T1 construct: GST; purchased Life Technologies
# Procedure: A panel of four LanthaScreen JAK biochemical assays (JAK1, 2, 3 and Tyk2) were carried in a common kinase reaction buffer (50 mM HEPES, pH 7.5, 0.01% Brij-35, 10 mM MgCl2, and 1 mM EGTA). Recombinant GST-tagged JAK enzymes and a GFP-tagged STAT1 peptide substrate were obtained from Life Technologies.
# Serially diluted compound was pre-incubated with each of the four JAK enzymes and the substrate in white 384-well microplates (Corning) at ambient temperature for 1 h. ATP was subsequently added to initiate the kinase reactions in 10 μL total volume, with 1% DMSO. […] The plates were allowed to incubate at ambient temperature for 1 h before being read on the EnVision reader (Perkin Elmer). Emission ratio signals (520 nm/495 nm) were recorded and utilized to calculate the percent inhibition values based on DMSO and background controls.
# For dose-response analysis, percent inhibition data were plotted vs. compound concentrations, and IC50 values were determined from a 4-parameter robust fit model with the Prism software (GraphPad Software). Results were expressed as pIC50 (negative logarithm of IC50) and subsequently converted to pKi (negative logarithm of dissociation constant, Ki) using the Cheng-Prusoff equation.
# [1] = Dermal pharmacokinetics in mouse skin; type: in vivo; details: mice, model cream and ointment formulations, without detectable plasma exposure
# Text: The objective of this assay was to determine the epidermal, dermal and plasma pharmacokinetics of a test compound following a 24 hr exposure to intact mouse or mini-pig skin.
# Twenty-four hours prior to dosing the hair was shaved from the back of 25 g male Balb/c mice exposing an area at of least 6 cm^2 (about 10% of body surface) and, in a separate experiment, of 10 kg Gottingen mini-pigs exposing an area of at least 450 cm^2 (about 10% of body surface). At time zero, following isoflurane anesthesia, the test compound was applied to the back of mice or mini-pigs at a dose of 25 μL/cm^2. The skin was covered with an adhesive cover to prevent loss of compound to the cage or bedding.
# Following 24 h exposure, the backs were gently washed with soap and water to remove non-absorbed drug and patted dry. Immediately following this washing, blood was drawn by cardiac puncture from the mice and via venipuncture from the mini-pigs. The outer skin (stratum corneum) was then removed by adhesive tape stripping. Upon exposure of the epidermis a 0.5 cm punch biopsy was taken. The epidermis and dermis were quickly separated, weighed and snap frozen. […]
# Epidermis and dermis samples were homogenized in 1:10 (w/v) water using a Covaris ultrasonic homogenizer. Samples were extracted in 3 volumes of acetonitrile and quantified against a standard curve via LC-MS analysis.
# AURKA = target: T2, AURKA (Homo sapiens, UniProt O14965); experiment: Kinome screen, AURKA; type: binding; details: screened at 1 μM
# T2 construct: made in house; host or cells: T7 phage in E. coli (BL21-derived) or HEK-293
# Procedure: Kinase-tagged T7 phage strains were grown in parallel in 24-well blocks in an E. coli host derived from the BL21 strain. E. coli were grown to log-phase and infected with T7 phage from a frozen stock (multiplicity of infection=0.4) and incubated with shaking at 32° C. until lysis (90-150 minutes). The lysates were centrifuged (6,000×g) and filtered (0.2 μm) to remove cell debris. The remaining kinases were produced in HEK-293 cells and subsequently tagged with DNA for qPCR detection.
# Streptavidin-coated magnetic beads were treated with biotinylated small molecule ligands for 30 minutes at room temperature to generate affinity resins for kinase assays. The liganded beads were blocked with excess biotin and washed with blocking buffer (SeaBlock (Pierce), 1% BSA, 0.05% Tween 20, 1 mM DTT) to remove unbound ligand and to reduce non-specific phage binding. […] Test compounds were prepared as 40× stocks in 100% DMSO and directly diluted into the assay. All reactions were performed in polypropylene 384-well plates in a final volume of 0.04 ml. […] The beads were then re-suspended in elution buffer (1×PBS, 0.05% Tween 20, 0.5 μM non-biotinylated affinity ligand) and incubated at room temperature with shaking for 30 minutes. The kinase concentration in the eluates was measured by qPCR.
# IL-6 induced pSTAT3 = experiment: Pharmacodynamic assay: inhibition of IL6-induced pSTAT3 in rats; type: in vivo, rat; details: 50 μg intravitreal, suspension formulation, 3 day pre-treatment prior to IL-6 challenge, female Lewis rats
# Procedure: The ability of a single intravitreal administration of test compound to inhibit IL-6 induced pSTAT3 was measured in rat retina/choroid homogenates.
# A suspension formulation was prepared by combining compound 1 of Example 2, with 0.5% hydroxypropyl methylcellulose (HPMC E5 LV), 0.02% Tween 80, and 9 mg/mL sodium chloride in purified water to attain a target concentration of 10 mg/mL.
# Female Lewis rats were intravitreally (IVT) dosed (5 μL per eye) with the suspension formulation. Three days later, IL-6 (Peprotech; 0.1 mg/mL; 5 μL per eye) or vehicle was intravitreally administered to induce pSTAT3. Ocular tissues were dissected one hour after the second IVT injection with IL-6. The retina/choroid tissues were homogenized and pSTAT3 levels were measured using an ELISA (Cell Signaling Technology). The percent inhibition of IL-6-induced pSTAT3 was calculated in comparison to the vehicle/vehicle and vehicle/IL-6 groups. Inhibition of greater than 100% reflects a reduction of pSTAT3 levels to below those observed in the vehicle/vehicle group.
# T1 sequence (P23458 whole entry): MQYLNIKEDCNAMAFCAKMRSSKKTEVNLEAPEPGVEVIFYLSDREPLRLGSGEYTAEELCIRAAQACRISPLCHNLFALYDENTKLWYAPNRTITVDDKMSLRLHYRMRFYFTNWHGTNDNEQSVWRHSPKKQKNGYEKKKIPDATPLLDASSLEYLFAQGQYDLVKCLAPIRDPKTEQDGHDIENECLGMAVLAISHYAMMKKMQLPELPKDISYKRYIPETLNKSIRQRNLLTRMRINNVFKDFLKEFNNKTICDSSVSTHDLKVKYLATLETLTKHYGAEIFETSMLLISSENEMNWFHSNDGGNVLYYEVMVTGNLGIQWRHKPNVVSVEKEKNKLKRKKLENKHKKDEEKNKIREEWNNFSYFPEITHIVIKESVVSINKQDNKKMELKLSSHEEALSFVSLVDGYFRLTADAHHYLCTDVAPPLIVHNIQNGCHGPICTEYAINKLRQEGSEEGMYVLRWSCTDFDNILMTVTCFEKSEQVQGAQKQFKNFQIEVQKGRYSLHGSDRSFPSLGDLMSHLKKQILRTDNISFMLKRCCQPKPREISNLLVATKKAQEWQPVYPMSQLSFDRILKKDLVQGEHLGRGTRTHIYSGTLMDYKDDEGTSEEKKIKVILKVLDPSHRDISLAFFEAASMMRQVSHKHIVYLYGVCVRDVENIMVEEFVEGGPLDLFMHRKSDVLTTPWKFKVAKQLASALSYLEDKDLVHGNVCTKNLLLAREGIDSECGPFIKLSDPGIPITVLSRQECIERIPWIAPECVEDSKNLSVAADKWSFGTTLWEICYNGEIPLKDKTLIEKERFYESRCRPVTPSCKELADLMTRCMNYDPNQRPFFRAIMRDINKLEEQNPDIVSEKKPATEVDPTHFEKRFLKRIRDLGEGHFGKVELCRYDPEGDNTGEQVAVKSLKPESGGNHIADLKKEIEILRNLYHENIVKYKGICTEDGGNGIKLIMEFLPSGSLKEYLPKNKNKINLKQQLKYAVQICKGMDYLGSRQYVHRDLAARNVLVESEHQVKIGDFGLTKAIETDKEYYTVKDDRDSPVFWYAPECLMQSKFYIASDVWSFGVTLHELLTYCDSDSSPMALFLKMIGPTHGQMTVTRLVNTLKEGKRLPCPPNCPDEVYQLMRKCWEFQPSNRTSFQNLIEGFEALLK
# T2 sequence (O14965 whole entry): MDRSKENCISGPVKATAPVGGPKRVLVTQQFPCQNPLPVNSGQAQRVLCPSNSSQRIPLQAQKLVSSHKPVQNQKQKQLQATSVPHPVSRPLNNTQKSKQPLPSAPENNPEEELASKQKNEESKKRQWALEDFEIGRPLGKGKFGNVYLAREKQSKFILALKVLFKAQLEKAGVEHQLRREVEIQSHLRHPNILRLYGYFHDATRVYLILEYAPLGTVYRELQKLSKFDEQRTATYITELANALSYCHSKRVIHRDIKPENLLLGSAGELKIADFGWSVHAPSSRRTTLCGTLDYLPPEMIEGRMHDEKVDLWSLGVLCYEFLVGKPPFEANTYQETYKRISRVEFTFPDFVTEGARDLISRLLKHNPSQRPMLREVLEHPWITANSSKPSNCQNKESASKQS
structure (smiles),measurement,setting,value
"CCc1cc(O)c(F)cc1-c1cc(F)c2c(-c3nc4c([nH]3)CCN(C(=O)CN3CCOCC3)C4)n[nH]c2c1 [Compound 1, 1-(2-(6-(2-ethyl-5-fluoro-4-hydroxyphenyl)-4-fluoro-1H-indazol-3-yl)-1,4,6,7-tetrahydro-5H-imidazo[4,5-c]pyridin-5-yl)-2-morpholinoethan-1-one]",Ki,JAK1,0.1 nM
same,duration of sustained dermal levels,[1],at least 2 days
same,inhibition at 1 µM,AURKA,11%
same,inhibition of IL-6-induced pSTAT3 in retina/choroid tissues,IL-6 induced pSTAT3,116%
